Measured values published in patent US20260248881A1, “PHARMACEUTICAL COMPOSITION COMPRISING FOXM1 INHIBITOR AND IMMUNE CHECKPOINT INHIBITOR FOR PREVENTING OR TREATING CANCER” (National Cancer Center, priority 2022, published 2026).

Test system: FOXM1 and PD-L1
Assay: Immunoblotting of FOXM1 and PD-L1 after FDI-6 or RCM1 treatment
Assay type: cell-based, human
Conditions: lung cancer cell line (PC9) and colorectal cancer cell line (SW480)
Method: Human lung cancer cell lines (H1299, PC9), colorectal cancer cell lines (HCT116, SW480), and brain tumor cell lines (U118) were purchased from the American Type Culture Collection (Manassas, VA, USA). H1299, PC9, U118, and SW480 cells were cultured in Roswell Park Memorial Institute (RPMI) medium supplemented with 10% FBS and 1% penicillin/streptomycin, and HCT116 cells were cultured in McCoy's 5A medium supplemented with 10% FBS and 1% penicillin/streptomycin. Cells were maintained at 37° C. in a humidified incubator with 5% CO2.
After washing, appropriate secondary antibodies conjugated to horseradish peroxidase were bound to the membrane, and protein bands were detected using a chemiluminescence kit (Thermo Fisher Scientific, Carlsbad, CA, USA).

## Nc1c(C(=O)Nc2ccc(F)cc2)sc2nc(-c3cccs3)cc(C(F)(F)F)c12 [FDI-6]
  FOXM1 and PD-L1 expression: significantly decreased
